In ChEMBL document CHEMBL4346712, “Research progress in the biological activities of 3,4,5-trimethoxycinnamic acid (TMCA) derivatives” (Eur J Med Chem, 2019):
pIC50: −log10 of the molar value. Values after ≈ are worked out from the molar mass of the structure shown.

How the values were obtained:
Platelet [1] = assay: Antiplatelet activity in rabbit platelet rich plasma assessed as inhibition of ADP-induced platelet aggregation at 30 ug/ml relative to control; assay type: functional; details: Oryctolagus cuniculus
Platelet [2] = assay: Antiplatelet activity in rabbit platelet rich plasma assessed as inhibition of PAF-induced platelet aggregation at 50 ug/ml relative to control; assay type: functional; details: Oryctolagus cuniculus
[3] = target: Platelet-activating factor receptor (Homo sapiens) (UniProt P25105); assay: Inhibition of PAF receptor (unknown origin) assessed as reduction in receptor to rabbit platelet binding at 20 ug/ml relative to control
Nakaseomyces glabratus = assay: Antifungal activity against Candida glabrata ATCC 90030 after 24 hrs by CLSI broth microdilution method; assay type: functional, organism-based; details: ATCC 90030, 24 h
[4] = Selectivity index, ratio of CC50 for BHK21 cells to IC50 for Candida parapsilosis ATCC 22019; assay type: toxicity; details: hamster, read-out: Ratio CC50/IC50
[5] = Selectivity index, ratio of CC50 for BHK21 cells to IC50 for Staphylococcus aureus ATCC 6538; assay type: toxicity; details: hamster, read-out: Ratio CC50/IC50
Staphylococcus aureus [6] = assay: Antibacterial activity against Staphylococcus aureus ATCC 6538 after 24 hrs by CLSI broth microdilution method; assay type: functional, organism-based; details: ATCC 6538, 24 h
Candida albicans = assay: Antifungal activity against Candida albicans ATCC 10231 after 24 hrs by CLSI broth microdilution method; assay type: functional, organism-based; details: ATCC 10231, 24 h
[7] = Selectivity index, ratio of CC50 for BHK21 cells to IC50 for Candida albicans ATCC 10231; assay type: toxicity; details: hamster, read-out: Ratio CC50/IC50
Staphylococcus aureus [8] = assay: Potency index, ratio of piplartine IC50 to test compound IC50 for Staphylococcus aureus ATCC 6538; assay type: functional
[9] = Selectivity index, ratio of CC50 for BHK21 cells to IC50 for Candida tropicalis ATCC 750; assay type: toxicity; details: hamster, read-out: Ratio CC50/IC50
Candida parapsilosis = assay: Antifungal activity against Candida parapsilosis ATCC 22019 after 24 hrs by CLSI broth microdilution method; assay type: functional, organism-based; details: Lodderomyces parapsilosis, ATCC 22019, 24 h
Candida tropicalis = assay: Antifungal activity against Candida tropicalis ATCC 750 after 24 hrs by CLSI broth microdilution method; assay type: functional, organism-based; details: ATCC 750, 24 h
[10] = Selectivity index, ratio of CC50 for BHK21 cells to IC50 for Candida glabrata ATCC 90030; assay type: toxicity; details: hamster, read-out: Ratio CC50/IC50
[11] = Cytotoxicity against BHK21 cells assessed as reduction in cell viability after 48 hrs by MTT assay; assay type: cell-based, Mesocricetus auratus, BHK-21; details: hamster
[12] = Growth inhibition of HUVEC; assay type: cell-based; details: human, HUVEC cells
[13] = Growth inhibition of HUVEC at 5 uM relative to control; assay type: cell-based; details: human, HUVEC cells; read-out: GI
[14] = target: T1, Bifunctional epoxide hydrolase 2 (Homo sapiens) (UniProt P34913); assay: Competitive inhibition of soluble epoxide hydrolase (unknown origin) at 100 uM relative to control
T1 sequence (whole entry): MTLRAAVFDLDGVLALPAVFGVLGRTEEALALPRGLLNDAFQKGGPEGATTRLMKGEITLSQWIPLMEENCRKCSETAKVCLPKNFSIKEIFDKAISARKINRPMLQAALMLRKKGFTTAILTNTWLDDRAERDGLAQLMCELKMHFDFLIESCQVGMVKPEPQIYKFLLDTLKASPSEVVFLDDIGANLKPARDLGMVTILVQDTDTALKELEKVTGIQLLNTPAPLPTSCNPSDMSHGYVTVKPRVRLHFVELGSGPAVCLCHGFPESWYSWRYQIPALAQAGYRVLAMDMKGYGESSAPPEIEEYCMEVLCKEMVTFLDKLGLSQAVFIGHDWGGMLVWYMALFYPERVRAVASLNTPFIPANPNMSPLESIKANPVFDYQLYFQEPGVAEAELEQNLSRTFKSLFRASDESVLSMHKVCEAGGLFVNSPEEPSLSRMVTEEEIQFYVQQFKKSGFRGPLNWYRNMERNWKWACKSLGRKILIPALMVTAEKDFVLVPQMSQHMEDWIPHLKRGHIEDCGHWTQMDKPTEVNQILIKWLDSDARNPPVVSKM

[15] = target: T2, Bifunctional epoxide hydrolase 2 (Homo sapiens, UniProt P34913); assay: Competitive inhibition of soluble epoxide hydrolase (unknown origin)
T2 sequence (P34913 whole entry): T1 sequence (whole entry)

Plasmodium falciparum [16] = assay: Antiplasmodial activity against blood form of chloroquine-resistant/mefloquine-sensitive Plasmodium falciparum W2 by [3H]-hypoxanthine incorporation method; assay type: functional, organism-based
Plasmodium falciparum [17] = assay: Antiplasmodial activity against blood form of chloroquine-resistant/mefloquine-sensitive Plasmodium falciparum W2 by histidine rich protein assay; assay type: functional, organism-based
Platelet [18] = assay: Antiplatelet activity in rabbit platelet rich plasma assessed as inhibition of arachidonic acid-induced platelet aggregation at 150 uM preincubated for 3 mins followed by arachidonic acid addition measured after 10 mins relative to control; assay type: functional; details: Oryctolagus cuniculus
Platelet [19] = assay: Antiplatelet activity in rabbit platelet rich plasma assessed as inhibition of arachidonic acid-induced platelet aggregation at 300 uM preincubated for 3 mins followed by arachidonic acid addition measured after 10 mins relative to control; assay type: functional; details: Oryctolagus cuniculus
Platelet [20] = assay: Antiplatelet activity in rabbit platelet rich plasma assessed as inhibition of PAF-induced platelet aggregation at 150 uM preincubated for 3 mins followed by PAF addition measured after 10 mins relative to control; assay type: functional; details: Oryctolagus cuniculus
Platelet [21] = assay: Antiplatelet activity in rabbit platelet rich plasma assessed as inhibition of collagen-induced platelet aggregation at 300 uM preincubated for 3 mins followed by collagen addition measured after 10 mins relative to control; assay type: functional; details: Oryctolagus cuniculus
Platelet [22] = assay: Antiplatelet activity in rabbit platelet rich plasma assessed as inhibition of PAF-induced platelet aggregation at 300 uM preincubated for 3 mins followed by PAF addition measured after 10 mins relative to control; assay type: functional; details: Oryctolagus cuniculus
HepG2 2.2.15 = assay: Cytotoxicity against human HepG2(2.2.15) cells after 24 hrs by MTT assay; assay type: functional; details: HepG2 2.2.15, 24 h
Hepatitis B virus [23] = assay: Antiviral activity against Hepatitis B virus infected in human HepG2.2.15 cells assessed as reduction in HBsAg secretion by ELISA; assay type: functional, organism-based
Hepatitis B virus [24] = assay: Antiviral activity against Hepatitis B virus infected in human HepG2.2.15 cells assessed as reduction in HBeAg secretion by ELISA; assay type: functional, organism-based
[25] = target: 5-hydroxytryptamine receptor 1A (Homo sapiens, UniProt P08908); assay: Displacement of [3H]8-OH-DPAT from 5-HT1A receptor (unknown origin) expressed in CHO-K1 cell membranes after 60 mins by microbeta counting method
CPAE = assay: Cytotoxic activity against cow CPAE cells by MTT assay; details: Bos taurus
EL4 = assay: Antitumor activity against mouse EL4 cells by MTT assay
[26] = target: Sodium-dependent serotonin transporter (Homo sapiens, UniProt P31645); assay: Displacement of [3H]Imipramine from human 5-HT transporter expressed in HEK-293 cell membranes after 30 mins
[27] = Selectivity index, ratio of CC50 for BHK21 cells to IC50 for Candida krusei ATCC 6258; assay type: toxicity; details: hamster, read-out: Ratio CC50/IC50
Pichia kudriavzevii = assay: Antifungal activity against Candida krusei ATCC 6258 after 24 hrs by CLSI broth microdilution method; assay type: functional, organism-based; details: ATCC 6258, 24 h

5-hydroxytryptamine receptor 1A, sequence (P08908 whole entry): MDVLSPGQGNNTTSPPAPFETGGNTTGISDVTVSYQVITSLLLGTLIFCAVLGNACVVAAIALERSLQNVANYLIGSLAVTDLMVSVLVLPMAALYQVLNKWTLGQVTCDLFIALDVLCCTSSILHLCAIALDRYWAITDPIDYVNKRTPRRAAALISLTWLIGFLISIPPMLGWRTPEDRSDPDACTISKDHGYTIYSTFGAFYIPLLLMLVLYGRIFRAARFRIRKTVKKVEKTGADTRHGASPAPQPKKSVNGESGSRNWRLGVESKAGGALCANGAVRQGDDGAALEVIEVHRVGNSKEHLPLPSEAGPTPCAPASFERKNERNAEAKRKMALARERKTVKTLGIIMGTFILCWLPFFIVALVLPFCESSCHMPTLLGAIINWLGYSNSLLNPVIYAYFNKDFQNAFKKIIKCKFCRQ
Platelet-activating factor receptor (Homo sapiens), sequence (P25105 whole entry): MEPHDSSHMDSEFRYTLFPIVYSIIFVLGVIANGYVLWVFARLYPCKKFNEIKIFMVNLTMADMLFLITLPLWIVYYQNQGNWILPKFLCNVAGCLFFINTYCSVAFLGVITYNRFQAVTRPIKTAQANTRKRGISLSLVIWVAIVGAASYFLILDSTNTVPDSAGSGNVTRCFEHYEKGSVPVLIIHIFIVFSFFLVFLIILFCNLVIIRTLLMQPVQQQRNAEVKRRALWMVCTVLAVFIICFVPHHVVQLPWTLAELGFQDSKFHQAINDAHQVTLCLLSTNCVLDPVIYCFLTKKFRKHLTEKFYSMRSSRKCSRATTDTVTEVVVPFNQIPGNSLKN
Sodium-dependent serotonin transporter, sequence (P31645 whole entry): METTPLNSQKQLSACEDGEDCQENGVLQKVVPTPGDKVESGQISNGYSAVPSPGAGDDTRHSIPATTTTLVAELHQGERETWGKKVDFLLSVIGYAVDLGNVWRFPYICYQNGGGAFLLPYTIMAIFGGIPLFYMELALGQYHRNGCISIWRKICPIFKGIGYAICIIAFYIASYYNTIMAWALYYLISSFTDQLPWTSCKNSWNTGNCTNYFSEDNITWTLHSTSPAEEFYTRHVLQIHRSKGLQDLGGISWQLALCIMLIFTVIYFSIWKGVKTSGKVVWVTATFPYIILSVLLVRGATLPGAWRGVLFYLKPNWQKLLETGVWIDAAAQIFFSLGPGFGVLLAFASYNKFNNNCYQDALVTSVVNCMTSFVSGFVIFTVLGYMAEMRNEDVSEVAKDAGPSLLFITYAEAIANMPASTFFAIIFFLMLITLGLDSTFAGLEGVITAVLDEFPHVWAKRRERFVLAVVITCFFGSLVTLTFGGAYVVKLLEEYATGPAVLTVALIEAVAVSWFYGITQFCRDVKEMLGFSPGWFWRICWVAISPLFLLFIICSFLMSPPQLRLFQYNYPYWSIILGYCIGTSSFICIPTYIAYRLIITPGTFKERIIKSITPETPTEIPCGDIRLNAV

For `COc1ccc(CCNC(=O)/C=C/c2cc(OC)c(OC)c(OC)c2)cc1`, the inhibition at 30 µg/mL (Platelet [1]) was 29.1%, the inhibition at 50 µg/mL (Platelet [2]) was 39.3% and the inhibition [3] was 19%.

Compound `O=C(/C=C/c1ccccc1)NNC(=O)c1ccccc1` has a pIC50 (Nakaseomyces glabratus) of 3.43, a selectivity ratio [4] of 0.61 and a selectivity ratio [5] of 2.71. For the same compound, the pIC50 (Staphylococcus aureus [6]) was 4.07, the pIC50 (Candida albicans) was 3.43 and the selectivity ratio [7] was 0.61. The “Ratio IC50” value (Staphylococcus aureus [8]) was 3, the selectivity ratio [9] was 0.61 and the pIC50 (Candida parapsilosis) was 3.43. The pIC50 (Candida tropicalis) was 3.43, the selectivity ratio [10] was 0.61 and the CC50 at 48 h [11] was 232 µM.

`COc1cc(/C=C/C(=O)Nc2ccc(NC(=O)[C@@H](O)[C@H](N)CCc3ccccc3)cc2)cc(OC)c1OC` gave a GI50 [12] of 0.85 µM and an inhibition at 5 µM [13] greater than 98%.

`COc1cc(/C=C/C(=O)Nc2ccc(NC(=O)[C@@H](O)[C@H](N)CC3CCCCC3)cc2)cc(OC)c1OC` showed a GI50 [12] of 0.67 µM and an inhibition at 5 µM [13] greater than 98%.

`COc1cc(/C=C/C(=O)O[C@H]2[C@H](O)[C@@H](CO)O[C@]2(CO)O[C@H]2O[C@H](CO)[C@@H](OC(=O)c3ccccc3)[C@H](O)[C@H]2O)cc(OC)c1OC` showed an inhibition [14] greater than 100% and a pIC50 [15] of 4.74.

Work on `COc1cc(/C=C/C(=O)OCC(=O)c2ccc(Cl)cc2)cc(OC)c1OC` yielded a pIC50 (Plasmodium falciparum [16]) of 3.89 and a pIC50 (Plasmodium falciparum [17]) of 3.89.

Compound `CC(=O)Oc1ccccc1C(=O)O` [ASPIRIN] has an inhibition at 150 µM (Platelet [18]) of 75%, an inhibition at 300 µM (Platelet [19]) of 100% and an inhibition at 150 µM (Platelet [20]) of 0.3%. It also gave an inhibition at 300 µM (Platelet [21]) of 5.8% and an inhibition at 300 µM (Platelet [22]) of 0.3%.

For `COc1cc(/C=C/C(=O)ON=C2C3CC4CC(C3)CC2C4)cc(OC)c1OC`, the CC50 (HepG2 2.2.15) was 507 µM, the pIC50 (Hepatitis B virus [23]) was 3.97 and the pIC50 (Hepatitis B virus [24]) was 4.13.

`COc1cc(/C=C/C(=O)Oc2ccccc2)cc(OC)c1OC` showed a pIC50 [25] of 5.03.

`COc1cc(/C=C/C(=O)O[C@@H]2CC[C@]3(CO3)[C@@H]([C@@]3(C)O[C@@H]3CC=C(C)C)[C@@H]2OC)cc(OC)c1OC` gave an IC50 (CPAE) of 0.03 µg/mL (≈ 0.0597 µM) and an IC50 (EL4) of 0.15 µg/mL (≈ 0.298 µM).

Compound `COc1cc(/C=C/C(=O)O)cc(OC)c1OC` [SINAPIC ACID METHYL ETHER] has a pIC50 [26] of less than 5.00.

In the case of `COc1cc(/C=C/C(=O)N2CCOCC2)cc(OC)c1OC`, the selectivity ratio [9] was 1.89, the pIC50 (Candida tropicalis) was 4.01 and the selectivity ratio [27] was 3.79. It also gave a CC50 at 48 h [11] of 186 µM and a pIC50 (Pichia kudriavzevii) of 4.31.
